From patent US10493027B2, “Chemically stable compositions of a pharmaceutical active agent in a multi- chambered delivery system for mucosal delivery” (MUCODEL PHARMA LLC, priority 2014, dated 2019)
In brackets after ≈: the same amount, converted by molar mass. Structures can show the parent of a compound that is named as a salt. Where two headings read alike, the source gives them in different places.

Assays:
[1] = cited from earlier work
[2] = cited from earlier work; remark: listed apart in the source
[3] = Nalbuphine bioavailability study (Example 14)
[4] = cited from earlier work; remark: listed apart in the source
[5] = orally delivered, mice; cited from earlier work
[6] = cited from earlier work; remark: listed apart in the source
[7] = cited from earlier work; remark: listed apart in the source

## Oc1ccc2c3c1O[C@H]1[C@@H](O)CC[C@@]4(O)[C@@H](C2)N(CC2CCC2)CC[C@]314 [Nalbuphine]
[1]; Example 14 text
  solubility in water: about 35 mg/g
[2]; i.v., 20 mg
  t1/2: 3.7 h
[2]; p.o., 60 mg
  t1/2: 4.65 h
  tmax: 0.777 h
[3]; intranasal
  peak plasma achieved faster than intraoral administration: ~1000%
[3]; intranasal, equivalent dose
  maximum drug plasma concentration higher than conventional oral formulation: ~500%

## C=CCN1CC[C@]23c4c5ccc(O)c4O[C@H]2C(=O)CC[C@@]3(O)[C@H]1C5 [Naloxone HCl, naloxone hydrochloride]
[1]; US EPA EPI Suite reference
  solubility in water: 73 mg/mL
[1]; room temperature
  solubility in water: greater than 70 mg/g

## C=CCN1CC[C@]23c4c5ccc(O)c4O[C@H]2C(=O)CC[C@@]3(O)[C@H]1C5 [Naloxone]
[4]; healthy subjects, doses 5 mg to 120 mg
  mean absolute bioavailability of oral Naloxone: less than or equal to 2%
[4]; oral PR tablets, 5 mg dose, based on AUCt
  mean absolute bioavailability: 0.9%
[5]
  bioavailability: 1%
[6]
  pKa: around 7.9
[1]; Example 5
  solubility in water: 1.4 mg/mL (≈ 4.28 mM)

## O=C1CC[C@@]2(O)[C@H]3Cc4ccc(O)c5c4[C@@]2(CCN3CC2CC2)[C@H]1O5 [Naltrexone]
[7]; pH of NTX increased from 6.8 to 7.5
  increase of permeation (factor): 1.6
[7]; pH of NTX increased from 6.8 to 8.5
  increase of permeation (factor): 4.4
[7]; with Brij 58, reconstituted human buccal mucosa
  permeation enhancement: 7.7

## Oc1ccc2c3c1O[C@H]1[C@@H](O)CC[C@@]4(O)[C@@H](C2)N(CC2CCC2)CC[C@]314 [nalbuphine hydrochloride]
[2]; oral
  bioavailability when delivered orally: approximately 12%
[3]; human, plasma, other: intranasal, 16.8 mg
  bioavailability: > 200%
